One compound from ChEMBL document CHEMBL1143830, “Compartmental pharmacokinetic analysis of oral amprenavir with secondary peaks” (Antimicrob Agents Chemother, 2007) can be followed below.

What all share (type): ADME, organism-based
Data set [1] in a line: Elimination half life at beta phase in HIV-seronegative human at 600 mg, po by two compartment model. As to conditions: in vivo.
Data set [2] in a line: Total clearance in HIV-seronegative human at 600 mg, po by two compartment model. As to conditions: in vivo.
Data set [3] can be described thus: Central volume of distribution in HIV-seronegative human at 600 mg, po by two compartment model. To be noted: in vivo, read-out: Vc/F.
Data set [4] in a line: Distribution half life at alpha phase in HIV-seronegative human at 600 mg, po by two compartment model. To be noted: in vivo.

For the compound `CC(C)CN(C[C@@H](O)[C@H](Cc1ccccc1)NC(=O)O[C@H]1CCOC1)S(=O)(=O)c1ccc(N)cc1` [AMPRENAVIR], the values for the half-life in data set [1] and in data set [4] were 15.8 h and 0.547 h, respectively. In addition, the CL/F in data set [2] is 19.4 mL/min/kg. Also, the Vd/F in data set [3] is 1.21 L/kg.
